Measured values from patent US11827628B2, “Compositions and methods for inhibition of the JAK pathway” (Rigel Pharmaceuticals, Inc., priority 2005, dated 2023).
Where a name gives a salt, the structure may show the parent alone. Read-outs that look alike come from different tables or passages of the source. Each block holds one compound with its values, some of them ahead of it.

Tests used:
Primary human T-cells = experiment: Primary Human T-Cell Proliferation Assay Stimulated with IL-2 (CellTiter-Glo); assay type: cell-based; conditions: read-out: IC50, Example 42
Excerpt: The activity of the active compounds of the invention may further be characterized by assaying the effect of the 2,4-substituted pyrimidinediamine compounds described herein on the proliferative response of primary human T-cells. In this assay, primary human T-cells derived from peripheral blood and pre-activated through stimulation of the T-cell receptor and CD28, proliferate in culture in response to the cytokine Interleukin-2 (IL-2). This proliferative response is dependent on the activation of JAK1 and JAK3 tyrosine kinases, which phosphorylate and activate the transcription factor Stat-5. The primary human T-cells are incubated with the 2,4-substituted pyrimidinediamine compounds in the presence of IL-2 for 72 hours and at the assay endpoint intracellular ATP concentrations are measured to assess cell viability. A reduction in cell proliferation compared to control conditions is indicative of inhibition of the JAK kinase pathway. An exemplary assay of this type is described in greater detail in Example 42
Primary human T-cells derived from peripheral blood and pre-activated through stimulation of the T-cell receptor and CD28, proliferate in vitro in response to the cytokine Interleukin-2 (IL-2). This proliferative response is dependent on the activation of JAK-1 and JAK-3 tyrosine kinases, which phosphorylate and activate the transcription factor Stat-5.
Human primary T cells were prepared as follows. Whole blood was obtained from a healthy volunteer, mixed 1:1 with PBS, layered on to Ficoll Hypaque (Amersham Pharmacia Biotech, Piscataway, NJ, Catalog #17-1440-03) in 2:1 blood/PBS:ficoll ratio and centrifuged for 30 min at 4° C. at 1750 rpm. The lymphocytes at the serum: ficoll interface were recovered and washed twice with 5 volumes of PBS. The cells were resuspended in Yssel's medium (Gemini Bio-products, Woodland, CA, Catalog #400-103) containing 40 U/mL recombinant IL2 (R and D Systems, Minneapolis, MN, Catalog #202-IL (20 rig)) and seeded into a flask pre-coated with 1 μg/mL anti-CD3 (BD Pharmingen, San Diego, CA, Catalog #555336) and 5 μg/mL anti-CD28 (Immunotech, Beckman Coulter of Brea CA, Catalog #IM1376). The primary T-cells were stimulated for 3-4 days, then transferred to a fresh flask and maintained in RPMI with 10% FBS and 40 U/mL IL-2.
Primary T-cells were washed twice with PBS to remove the IL-2 and resuspended in Yssel's medium at 2×10^6 cells/mL. 50 μL of cell suspension containing 80 U/mL IL-2 was added to each well of a flat bottom 96 well black plate. For the unstimulated control, IL-2 was omitted from the last column on the plate. Compounds were serially diluted in dimethyl sulfoxide (DMSO, 99.7% pure, cell culture tested, Sigma-Aldrich, St. Louis, MO, Catalog No. D2650) from 5 mM in 3-fold dilutions, and then diluted 1:250 in Yssel's medium. 50 μL of 2× compound was added per well in duplicate and the cells were allowed to proliferate for 72 hours at 37° C.
Proliferation was measured using CellTiter-Glo® Luminescent Cell Viability Assay (Promega), which determines the number of viable cells in culture based on quantitation of the ATP present, as an indicator of metabolically active cells. The substrate was thawed and allowed to come to room temperature. After mixing the Cell Titer-Glo reagent and diluent together, 100 μL was added to each well. The plates were mixed on an orbital shaker for two minutes to induce lysis and incubated at room temperature for an additional ten minutes to allow the signal to equilibrate. Detection was performed using a Wallac Victor2 1420 multilabel counter purchased from Perkin Elmer, Shelton, CT The IC50 calculated based on the results of this assay are provided in TABLE XII.

[1] = test system: IL-4 stimulated expression of CD23 in human Ramos B cells (JAK-1 and JAK-3); experiment: Assay for Ramos B-Cell Line Stimulated with IL-4 (CD23 upregulation, FACS); assay type: cell-based; conditions: read-out: IC50, Example 41
Procedure, shortened: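 Read-out: anti-CD23-PE flow cytometry on Ramos B cells, giving IC50. Cells (5×10^4 per point, RPMI + 5% serum) get compound or DMSO for 1 h at 37 °C, then IL-4 50 units/mL final for 20-24 h.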

[2] = Homo sapiens, T-cell, primary human T-cells stimulated with IL-2, proliferation
[3] = Homo sapiens, Ramos, Ramos B cells stimulated with IL-4, CD23 expression by FACS
[4] = Ramos B cells stimulated with IL-4, CD23 expression by FACS
[5] = Homo sapiens, Ramos, Ramos B-cell line stimulated with IL-4, CD23 expression by FACS
[6] = Ramos B-cell line stimulated with IL-4, CD23 expression by FACS, sodium salt
[7] = Ramos B-cell line stimulated with IL-4, CD23 expression by FACS
[8] = Ramos B cells stimulated with IL-4, CD23 expression by FACS, sodium salt

SMILES: C#CCNS(=O)(=O)c1ccc(Nc2nc(Nc3ccc(S(N)(=O)=O)cc3)ncc2F)cc1 [VI-77, N2-(4-Aminosulfonylphenyl)-5-fluoro-N4-[4-(prop-2-ynylaminosulfonyl)phenyl]-2,4-pyrimidinediamine]
IC50 (Primary human T-cells; [2]): 43300 nM

SMILES: NS(=O)(=O)c1ccc(Nc2ncc(F)c(Nc3ccc(-c4ccccn4)c(OCF)c3)n2)cc1 [Compound I-177, N2-(4-Aminosulfonylphenyl)-5-fluoro-N4-[4-(2-pyridinyl)-3-fluoromethyleneoxyphenyl]-2,4-pyrimidinediamine]
IC50 (Primary human T-cells; primary human T-cell proliferation stimulated with IL-2): 500 nM

SMILES: CCC(=O)NS(=O)(=O)c1cc(Nc2ncc(F)c(Nc3ccc(OCC#N)c(F)c3)n2)ccc1C [Compound I-48, N4-(4-Cyanomethoxy-3-fluorophenyl)-5-fluoro-N2-(4-methyl-3-propionylaminosulfonylphenyl)-2,4-pyrimidinediamine]
IC50 [1, 5]: 1400 nM

SMILES: CCC(=O)NS(=O)(=O)c1cccc(Nc2ncc(F)c(Nc3ccc(OCc4cc(C)on4)cc3)n2)c1 [Compound I-242, 5-Fluoro-N4-[4-(5-methylisoxazol-3-yl)methyleneoxyphenyl]-N2-(3-N-propanamido)sulfonylphenyl)]-2,4-pyrimidinediamine sodium salt]
IC50 [1, 6]: 520 nM

SMILES: CCC(=O)NS(=O)(=O)c1cc(Nc2ncc(F)c(Nc3ccc(OCc4cc(C)on4)cc3)n2)ccc1C [Compound I-228, 5-Fluoro-N4-[4-(5-methylisoxazol-3-yl)methyleneoxyphenyl]-N2-(4-methyl-3-propionylaminosulfonylphenyl)-2,4-pyrimidinediamine]
IC50 [1, 7]: 3810 nM

SMILES: CC(=O)NS(=O)(=O)c1cccc(Nc2ncc(F)c(Nc3ccc(OCc4cc(C)on4)cc3)n2)c1 [Compound I-243, N2-(3-Acetamidosulfonylphenyl)-5-fluoro-N4-[4-(5-methylisoxazol-3-yl)methyleneoxyphenyl]-2,4-pyrimidinediamine sodium salt]
IC50 [1, 6]: 917 nM

SMILES: CN1CCN(S(=O)(=O)c2cccc(Nc3ncc(F)c(Nc4ccc(OCC(N)=O)cc4)n3)c2)CC1 [Compound I-112, N4-(4-Aminocarbonylmethoxy)phenyl-5-fluoro-N2-[3-(4-methylpiperazin-1-yl)sulfonyl]phenyl-2,4-pyrimidinediamine]
IC50 [1, 7]: 2360 nM

SMILES: COc1cc(Nc2nc(Nc3ccc(C)c(S(N)(=O)=O)c3)ncc2F)ccc1OCC(N)=O [Compound I-105, N4-(4-Aminocarbonylmethoxy-3-methoxyphenyl)-N2-(3-aminosulfonyl-4-methylphenyl)-5-fluoro-2,4-pyrimidinediamine]
IC50 [1, 5]: 1170 nM

SMILES: CN(C(=O)CC#N)c1ccc(Nc2nc(Nc3cccc(S(N)(=O)=O)c3)ncc2F)cc1 [Compound I-86, N2-(3-Aminosulfonylphenyl)-N4-[4-(N-cyanoacetyl-N-methyl)aminophneyl]-5-fluoro-2,4-pyrimidinediamine]
IC50 [1, 7]: 916 nM

Further lines, with some results ahead:

IC50 [1, 3]: 541 nM
SMILES: Cc1ccc(Nc2ncc(F)c(Nc3ccc(CCCO)cc3)n2)cc1S(N)(=O)=O [VI-87, N2-(3-Aminosulfonyl-4-methylphenyl)-5-fluoro-N4-[4-(3-hydroxypropyl)phenyl]-2,4-pyrimidinediamine]
IC50 (Primary human T-cells; [2]): 1240 nM

IC50 [1, 4]: 367 nM
SMILES: CNS(=O)(=O)c1cccc(Nc2nc(Nc3cccc(S(N)(=O)=O)c3)ncc2F)c1 [IV-11, N2-(3-Aminosulfonylhenyl)-5-fluoro-N4-[3-(N-methylaminosulfonyl)phenyl]-2,4-pyrimidinediamine]

IC50 [1, 3]: 663 nM
SMILES: CCCN(c1ccc(OC)c(Cl)c1)c1nc(Nc2ccc(C)c(S(N)(=O)=O)c2)ncc1F [VI-22, N2-(3-Aminosulfonyl-4-methylphenyl)-N4-(3-chloro-4-methoxyphenyl)-5-fluoro-N4-propyl-2,4-pyrimidinediamine]

IC50 [1, 3]: 11300 nM
SMILES: COc1ccc(N(C)c2nc(Nc3cc(C)c(Cl)c(S(N)(=O)=O)c3)ncc2F)cc1Cl [VI-21, N2-(3-Aminosulfonyl-4-chloro-5-methylphenyl)-N4-(3-chloro-4-methoxyphenyl)-5-fluoro-N4-methyl-2,4-pyrimidinediamine]

IC50 [1, 8]: 6090 nM
SMILES: CCC(=O)NS(=O)(=O)c1cccc(Nc2ncc(F)c(Nc3ccc(CCOC(=O)N(C)C)cc3)n2)c1 [VI-66, N4-{4-[2-(Dimethylaminocarbonyloxy)ethyl]phenyl}-5-fluoro-N2-(3-propionylaminosulfonylphenyl)-2,4-pyrimidinediamine sodium salt]

IC50 [1, 4]: 1180 nM
SMILES: Cc1ccc(Nc2ncc(F)c(Nc3ccc4c(c3)N(Cc3ccccn3)C(=O)CO4)n2)cc1S(N)(=O)=O [Compound V-2, N2-(3-Aminosulphonyl-4-methylphenyl)-5-fluoro-N4-[3-oxo-4-(2-pyridylmethy)-benz[1,4]oxazin-6-yl]-2,4-pyrimidinediamine]

IC50 [1, 4]: 1650 nM
SMILES: Cc1ccc(Nc2ncc(F)c(Nc3cccc(CNC(N)=O)c3)n2)cc1S(N)(=O)=O [III-115, N4-(3-aminocarbonylaminomethyl)phenyl-N2-(3-aminosulfonyl-4-methyl)phenyl-5-fluoro-2,4-pyrimidinediamine]

IC50 [1, 8]: 1980 nM
SMILES: CCC(=O)NS(=O)(=O)c1cc(Nc2ncc(F)c(Nc3ccc(CCC#N)c(C)c3)n2)ccc1C [VI-104, N4-[4-(2-Cyanoethyl)-3-methylphenyl]-5-fluoro-N2-(4-methyl-3-propionylaminosulfonylphenyl)-2,4-pyrimidinediamine Sodium Salt]

IC50 [1, 3]: 2670 nM
SMILES: CN1C(=O)CSc2ccc(N(CC#N)c3nc(Nc4ccc(S(N)(=O)=O)cc4)ncc3F)cc21 [VII-47, N2-(4-Aminosulphonylphenyl)-N4-cyanomethyl-5-fluoro-N4-[3-oxo-4-methyl-benzo[1,4]thiazin-6-yl]-2,4-pyrimidinediamine]

IC50 [1, 3]: 3080 nM
SMILES: CCC(=O)NS(=O)(=O)c1cc(Nc2ncc(F)c(Nc3ccc(CCC#N)c(C)c3)n2)ccc1C [VI-103, N4-[4(2-Cyanoethyl)-3-methylphenyl]-5-fluoro-N2-(4-methyl-3-propionylaminosulfonylphenyl)-2,4-pyrimidinediamine]

IC50 [1, 4]: 766 nM
SMILES: COC(=O)CNS(=O)(=O)c1cccc(Nc2ncc(F)c(Nc3ccc(OC)c(Cl)c3)n2)c1 [VI-7, N4-(3-Chloro-4-methoxyphenyl)-5-fluoro-N2-[3-(N-methoxycarbonylmethylene)aminosulfonylphenyl]-2,4-pyrimidinediamine]

IC50 [1, 3]: 161 nM
SMILES: C#CCNS(=O)(=O)c1cccc(Nc2ncc(F)c(Nc3ccc(OCC#C)cc3)n2)c1 [VI-78, 5-Fluoro-N2-[3-(prop-2-ynylaminosulfonyl)phenyl]-N4-[4-(prop-2-ynyloxy)phenyl]-2,4-pyrimidinediamine]

IC50 [1, 3]: 803 nM
SMILES: CCCCNS(=O)(=O)c1cccc(Nc2ncc(F)c(Nc3ccc(C)c(C#N)c3)n2)c1 [VI-96, N2-(3-Butylaminosulfonylphenyl)-N4-(3-cyano-4-methylphenyl)-5-fluoro-2,4-pyrimidinediamine]

IC50 [1, 3]: 726 nM
SMILES: COc1ccc(N(C)c2nc(Nc3cc(C)c(F)c(S(N)(=O)=O)c3)ncc2F)cc1Cl [VI-20, N2-(3-Aminosulfonyl-4-fluoro-5-methylphenyl)-N4-(3-chloro-4-methoxyphenyl)-5-fluoro-N4-methyl-2,4-pyrimidinediamine]
